Reference: ChEMBL document CHEMBL3044861, “Synthesis and Herbicidal Activity of New 2-(1-Carbamoyl-1, 2, 4-triazol-3-ylsulfonyl) alkanoates” (J Pestic Sci, 2002)

Assays:
[1] = Octanol-water partition coefficient, log K of the compound; type: physicochemical; details: read-out: log K
[2] = test system: Oryza sativa; experiment: Toxicity in Oryza sativa (rice) assessed as injury at 25 g/ha pre-emergence application under paddy conditions by crop safety assay; type: organism-based; details: in vivo, other
[3] = test system: Oryza sativa; experiment: Toxicity in Oryza sativa (rice) assessed as injury at 50 g/ha pre-emergence application under paddy conditions by crop safety assay; type: organism-based; details: in vivo, other
[4] = test system: Pontederia vaginalis; experiment: Herbicidal activity against Monochoria vaginalis assessed as killing at 50 g/ha pre-emergence application under paddy conditions; type: functional
[5] = test system: Echinochloa oryzicola; experiment: Herbicidal activity against Echinochloa oryzicola assessed as killing at 25 g/ha pre-emergence application under paddy conditions; type: functional
[6] = test system: Echinochloa oryzicola; experiment: Herbicidal activity against Echinochloa oryzicola assessed as killing at 50 g/ha pre-emergence application under paddy conditions; type: functional
[7] = test system: Pontederia vaginalis; experiment: Herbicidal activity against Monochoria vaginalis assessed as killing at 25 g/ha pre-emergence application under paddy conditions; type: functional
[8] = test system: Schoenoplectiella juncoides; experiment: Herbicidal activity against Schoenoplectiella juncoides assessed as killing at 25 g/ha pre-emergence application under paddy conditions; type: functional
[9] = Herbicidal activity against broadleaf weed assessed as killing at 25 g/ha pre-emergence application under paddy conditions; type: functional
[10] = test system: Echinochloa oryzicola; experiment: Herbicidal activity against Echinochloa oryzicola assessed as killing pre-emergence application under paddy conditions; type: functional
[11] = Herbicidal activity against broadleaf weed assessed as killing at 50 g/ha pre-emergence application under paddy conditions; type: functional
[12] = test system: Schoenoplectiella juncoides; experiment: Herbicidal activity against Schoenoplectiella juncoides assessed as killing at 50 g/ha pre-emergence application under paddy conditions; type: functional
[13] = test system: Echinochloa crus-galli; experiment: Herbicidal activity against Echinochloa crus-galli (barnyard grass) assessed as killing at 500 g/ha pre-emergence application upland paddy conditions measured after 14 days; type: functional
[14] = test system: Digitaria ciliaris; experiment: Herbicidal activity against Digitaria ciliaris assessed as killing at 500 g/ha pre-emergence application upland paddy conditions measured after 14 days; type: functional
[15] = test system: Chenopodium album; experiment: Herbicidal activity against Chenopodium album assessed as killing at 500 g/ha pre-emergence application upland paddy conditions measured after 14 days; type: functional
[16] = test system: Zea mays; experiment: Herbicidal activity against Zea mays (maize)assessed as killing at 500 g/ha pre-emergence application upland paddy conditions measured after 14 days; type: functional

Row | SMILES | logP [1] | Activity [2] [%] | Activity [3] [%] | Activity [4] [%] | Activity [5] [%] | Activity [6] [%] | Activity [7] [%] | Activity [8] [%] | Activity [9] [%] | log(1/ED80) [10] | Activity [11] [%] | Activity [12] [%] | Activity [13] [%] | Activity [14] [%] | Activity [15] [%] | Activity [16] [%]
1 | CCN(CC)C(=O)n1cnc(S(=O)(=O)C(CC(C)C)C(=O)OCC(C)C)n1 (stereo not given) | 1.03 | 10 | 10 | 100 | 40 | 80 | 40 | 30 | 30 | 0.91 | 60 | 100 | – | – | – | –
2 | CC(C)CC(C(=O)OC(C)C)S(=O)(=O)c1ncn(C(=O)N(C)c2ccccc2)n1 (stereo not given) | – | – | – | 10 | – | 20 | – | – | – | – | 40 | 10 | – | – | – | –
3 | CCC(C)C(C(=O)OC)S(=O)(=O)c1ncn(C(=O)N(CC)CC)n1 (stereo not given) | 0.66 | – | 10 | 60 | – | 100 | – | – | – | 0.95 | 80 | 90 | 90 | 100 | 100 | 40
4 | CCN(CC)C(=O)n1cnc(S(=O)(=O)C(C(=O)OC)C2CC2)n1 (stereo not given) | 0.47 | – | 10 | 10 | – | 10 | – | – | – | 0.24 | 10 | 10 | 90 | 100 | 80 | 20
5 | CCC(CC)C(C(=O)OC)S(=O)(=O)c1ncn(C(=O)N(CC)CC)n1 (stereo not given) | 0.76 | – | 10 | 100 | – | 100 | – | – | – | 1.4 | 90 | 80 | 100 | 90 | 90 | 30
6 | CC(C)CC(C(=O)OC(C)C)S(=O)(=O)c1ncn(C(=O)N(C)C)n1 (stereo not given) | – | – | – | 10 | – | 60 | – | – | – | – | 40 | 10 | – | – | – | –
7 | CCN(CC)C(=O)n1cnc(S(=O)(=O)C(C(=O)OC)C2CCCC2)n1 (stereo not given) | 0.69 | – | 10 | 100 | – | 100 | – | – | – | 1.27 | 90 | 100 | 90 | 90 | 90 | 80
8 | CC(C)CC(C(=O)OC(C)C)S(=O)(=O)c1ncn(C(=O)N2CCOCC2)n1 (stereo not given) | – | – | – | 10 | – | 10 | – | – | – | – | 10 | 10 | – | – | – | –
9 | CCN(CC)C(=O)n1cnc(S(=O)(=O)C(CCCC#N)C(=O)OC)n1 (stereo not given) | 0.41 | – | 10 | 10 | – | 10 | – | – | – | 0.05 | 10 | 10 | 90 | 90 | 90 | 70
10 | CC(C)CC(C(=O)OC(C)C)S(=O)(=O)c1ncn(C(=O)N(C)C2CCCCC2)n1 (stereo not given) | – | – | – | 10 | – | 30 | – | – | – | – | 50 | 10 | – | – | – | –
11 | CCC(C(=O)OC)S(=O)(=O)c1ncn(C(=O)N(CC)CC)n1 (stereo not given) | 0.49 | – | 10 | 10 | – | 60 | – | – | – | 0.74 | 10 | 10 | 60 | 50 | 40 | 30
12 | CCN(CC)C(=O)n1cnc(S(=O)(=O)C(CC2CC2)C(=O)OC)n1 (stereo not given) | 0.6 | – | 10 | 100 | – | 100 | – | – | – | 0.95 | 90 | 60 | 90 | 90 | 100 | 60
13 | CCN(CC)C(=O)n1cnc(S(=O)(=O)C(CC2CCCCC2)C(=O)OC)n1 (stereo not given) | 0.94 | – | 10 | 10 | – | 100 | – | – | – | 1.2 | 50 | 10 | 40 | 10 | 40 | 20
14 | CCN(CC)C(=O)n1cnc(S(=O)(=O)CCC(C)C)n1 | – | – | 10 | 10 | – | 100 | – | – | – | – | 50 | 10 | – | – | – | –
15 | CCN(CC)C(=O)n1cnc(S(=O)(=O)CC(=O)OC)n1 | 0.36 | – | 10 | 10 | – | 10 | – | – | – | 0.18 | 10 | 10 | 40 | 50 | 30 | 10
16 | CCN(CC)C(=O)n1cnc(S(=O)(=O)C(Cc2ccccc2)C(=O)OC)n1 (stereo not given) | 0.69 | – | 10 | 10 | – | 50 | – | – | – | 0.6 | 10 | 10 | 10 | 10 | 30 | 10
17 | CCCC(C(=O)OC)S(=O)(=O)c1ncn(C(=O)N(CC)CC)n1 (stereo not given) | 0.58 | – | 10 | 60 | – | 100 | – | – | – | 1.14 | 60 | 60 | 100 | 100 | 100 | 50
18 | CCN(CC)C(=O)n1cnc(S(=O)(=O)C(CC(=O)OC)C(=O)OC)n1 (stereo not given) | 0.45 | – | 10 | 10 | – | 10 | – | – | – | -0.04 | 10 | 10 | 50 | 60 | 30 | 10
19 | CCCCC(C(=O)OC)S(=O)(=O)c1ncn(C(=O)N(CC)CC)n1 (stereo not given) | 0.69 | – | 10 | 40 | – | 90 | – | – | – | 0.9 | 30 | 10 | 90 | 90 | 100 | 50
20 | CCN(CC)C(=O)n1cnc(S(=O)(=O)C(C(=O)OC)C(C)C)n1 (stereo not given) | 0.56 | – | 40 | 100 | – | 100 | – | – | – | 1.24 | 90 | 100 | 80 | 90 | 90 | 30
21 | CC(C)CC(C(=O)OC(C)C)S(=O)(=O)c1ncn(C(=O)N2CCCC2)n1 (stereo not given) | – | – | 10 | 10 | – | 40 | – | – | – | – | 30 | 10 | – | – | – | –
22 | CCN(CC)C(=O)C(CC(C)C)S(=O)(=O)c1ncn(C(=O)N(CC)CC)n1 (stereo not given) | – | – | 20 | 10 | – | 10 | – | – | – | – | 10 | 10 | – | – | – | –
23 | C=C(C)CC(C(=O)OC)S(=O)(=O)c1ncn(C(=O)N(CC)CC)n1 (stereo not given) | 0.63 | – | 10 | 100 | – | 90 | – | – | – | 0.95 | 90 | 60 | 100 | 100 | 100 | 40
24 | CCC(C)CC(C(=O)OC)S(=O)(=O)c1ncn(C(=O)N(CC)CC)n1 (stereo not given) | 0.79 | – | 10 | 40 | – | 90 | – | – | – | 0.99 | 80 | 80 | 90 | 90 | 100 | 20
25 | CCN(CC)C(=O)n1cnc(S(=O)(=O)C(C)C(=O)OC)n1 (stereo not given) | 0.41 | – | 10 | 10 | – | 10 | – | – | – | -0.1 | 10 | 10 | 60 | 80 | 60 | 20
26 | C=CC(C)C(C(=O)OC)S(=O)(=O)c1ncn(C(=O)N(CC)CC)n1 (stereo not given) | 0.63 | – | 10 | 10 | – | 60 | – | – | – | 0.65 | 10 | 10 | 90 | 90 | 90 | 70
27 | CC(C)CC(C(=O)OC(C)C)S(=O)(=O)c1ncn(C(=O)N(C(C)C)C(C)C)n1 (stereo not given) | – | – | – | 10 | – | 60 | – | – | – | – | 60 | 30 | – | – | – | –
